These results are taken from paper PMC4774911, “Biochemical Screening of Five Protein Kinases from Plasmodium falciparum against 14,000 Cell-Active Compounds” (PLoS ONE, 2016).

“And” between values parts separate entries of the source, which are not always exact repeats. Identical values can stand only once.

Holding throughout (test): biochemical
Assay [1] concerns the target MAP3K4 (Homo sapiens, UniProt Q9Y6R4).
Assay [2] has as its target PRKCQ (Homo sapiens, UniProt Q04759).
Assay [3] deals with CSK (Homo sapiens, UniProt P41240).
Assay [4] addresses PTK2 (Homo sapiens, UniProt Q05397).
Assay [5] has as its target T1, PIP4K2A (Homo sapiens, UniProt P48426).
T1 sequence (P48426 1-406): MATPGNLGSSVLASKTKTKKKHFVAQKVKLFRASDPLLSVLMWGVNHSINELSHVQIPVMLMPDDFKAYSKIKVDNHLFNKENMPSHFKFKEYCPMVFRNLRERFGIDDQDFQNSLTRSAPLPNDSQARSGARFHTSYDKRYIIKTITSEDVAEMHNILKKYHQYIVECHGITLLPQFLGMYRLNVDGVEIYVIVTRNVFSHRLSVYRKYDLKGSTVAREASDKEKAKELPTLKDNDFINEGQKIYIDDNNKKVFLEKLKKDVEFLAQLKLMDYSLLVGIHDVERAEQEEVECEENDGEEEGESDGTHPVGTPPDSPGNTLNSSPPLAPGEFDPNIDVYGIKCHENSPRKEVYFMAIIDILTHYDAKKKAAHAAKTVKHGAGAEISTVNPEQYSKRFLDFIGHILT

The target in assay [6] is FYN (Homo sapiens, UniProt P06241).
Assay [7] has as its target T2, IKBKB (Homo sapiens, UniProt O14920).
T2 sequence (O14920 1-756): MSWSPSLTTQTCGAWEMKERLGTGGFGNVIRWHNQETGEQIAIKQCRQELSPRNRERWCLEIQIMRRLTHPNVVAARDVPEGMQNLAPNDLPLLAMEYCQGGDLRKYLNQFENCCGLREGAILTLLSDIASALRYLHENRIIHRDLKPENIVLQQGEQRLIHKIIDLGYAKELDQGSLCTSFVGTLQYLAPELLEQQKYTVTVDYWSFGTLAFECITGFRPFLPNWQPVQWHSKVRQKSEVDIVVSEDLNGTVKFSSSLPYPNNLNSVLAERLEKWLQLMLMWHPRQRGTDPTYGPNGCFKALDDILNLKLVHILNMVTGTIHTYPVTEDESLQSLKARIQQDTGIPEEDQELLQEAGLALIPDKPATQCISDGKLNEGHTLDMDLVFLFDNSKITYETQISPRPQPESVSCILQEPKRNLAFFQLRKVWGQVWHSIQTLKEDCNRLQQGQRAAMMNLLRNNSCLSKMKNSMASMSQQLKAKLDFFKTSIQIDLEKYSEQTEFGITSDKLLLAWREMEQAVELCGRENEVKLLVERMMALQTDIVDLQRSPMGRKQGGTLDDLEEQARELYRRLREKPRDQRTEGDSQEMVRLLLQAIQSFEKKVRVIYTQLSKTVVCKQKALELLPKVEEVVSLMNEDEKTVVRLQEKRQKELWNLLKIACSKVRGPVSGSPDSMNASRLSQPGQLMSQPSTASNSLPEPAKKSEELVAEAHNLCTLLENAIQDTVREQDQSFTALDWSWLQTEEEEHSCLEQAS

The target in assay [8] is T3, CHUK (Homo sapiens, UniProt O15111).
T3 sequence (O15111 1-745): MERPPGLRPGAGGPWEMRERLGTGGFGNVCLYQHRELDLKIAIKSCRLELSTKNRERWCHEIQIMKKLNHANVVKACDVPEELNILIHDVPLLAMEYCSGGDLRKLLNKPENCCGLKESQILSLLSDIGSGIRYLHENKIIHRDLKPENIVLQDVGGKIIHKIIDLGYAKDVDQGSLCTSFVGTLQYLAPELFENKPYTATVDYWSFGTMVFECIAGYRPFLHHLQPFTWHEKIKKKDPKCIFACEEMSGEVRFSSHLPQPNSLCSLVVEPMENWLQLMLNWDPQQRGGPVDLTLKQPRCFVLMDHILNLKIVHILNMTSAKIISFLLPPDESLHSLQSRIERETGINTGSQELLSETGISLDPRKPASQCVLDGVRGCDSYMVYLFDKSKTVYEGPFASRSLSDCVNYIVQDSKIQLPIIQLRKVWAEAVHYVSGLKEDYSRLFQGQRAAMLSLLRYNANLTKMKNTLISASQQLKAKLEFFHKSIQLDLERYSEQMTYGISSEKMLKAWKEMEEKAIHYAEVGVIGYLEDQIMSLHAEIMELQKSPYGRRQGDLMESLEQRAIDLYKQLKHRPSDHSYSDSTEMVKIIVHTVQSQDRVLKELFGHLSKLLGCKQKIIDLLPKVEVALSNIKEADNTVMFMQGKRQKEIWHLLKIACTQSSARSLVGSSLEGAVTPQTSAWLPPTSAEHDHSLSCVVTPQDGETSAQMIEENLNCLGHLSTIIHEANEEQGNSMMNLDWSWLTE

Assay [9] addresses PRKCA (Homo sapiens, UniProt P17252).

Sequence of PRKCQ (Q04759 whole entry): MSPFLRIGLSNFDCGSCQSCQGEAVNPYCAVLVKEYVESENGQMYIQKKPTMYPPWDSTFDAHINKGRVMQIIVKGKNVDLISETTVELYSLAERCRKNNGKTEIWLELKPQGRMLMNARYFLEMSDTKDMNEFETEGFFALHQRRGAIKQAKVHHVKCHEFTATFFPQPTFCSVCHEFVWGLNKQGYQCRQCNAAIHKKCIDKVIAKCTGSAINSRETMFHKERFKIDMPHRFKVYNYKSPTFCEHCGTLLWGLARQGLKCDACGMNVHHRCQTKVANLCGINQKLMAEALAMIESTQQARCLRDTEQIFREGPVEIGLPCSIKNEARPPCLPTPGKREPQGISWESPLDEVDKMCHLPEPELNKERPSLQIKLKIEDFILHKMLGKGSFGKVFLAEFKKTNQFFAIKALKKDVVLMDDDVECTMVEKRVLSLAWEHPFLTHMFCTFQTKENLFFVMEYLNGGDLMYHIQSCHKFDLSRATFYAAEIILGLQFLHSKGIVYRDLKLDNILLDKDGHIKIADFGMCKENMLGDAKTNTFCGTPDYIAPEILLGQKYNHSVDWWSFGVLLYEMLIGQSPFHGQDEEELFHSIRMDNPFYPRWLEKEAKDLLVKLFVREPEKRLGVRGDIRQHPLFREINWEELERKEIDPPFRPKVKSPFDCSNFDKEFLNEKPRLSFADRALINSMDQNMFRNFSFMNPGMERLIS
Sequence of MAP3K4 (Q9Y6R4 whole entry): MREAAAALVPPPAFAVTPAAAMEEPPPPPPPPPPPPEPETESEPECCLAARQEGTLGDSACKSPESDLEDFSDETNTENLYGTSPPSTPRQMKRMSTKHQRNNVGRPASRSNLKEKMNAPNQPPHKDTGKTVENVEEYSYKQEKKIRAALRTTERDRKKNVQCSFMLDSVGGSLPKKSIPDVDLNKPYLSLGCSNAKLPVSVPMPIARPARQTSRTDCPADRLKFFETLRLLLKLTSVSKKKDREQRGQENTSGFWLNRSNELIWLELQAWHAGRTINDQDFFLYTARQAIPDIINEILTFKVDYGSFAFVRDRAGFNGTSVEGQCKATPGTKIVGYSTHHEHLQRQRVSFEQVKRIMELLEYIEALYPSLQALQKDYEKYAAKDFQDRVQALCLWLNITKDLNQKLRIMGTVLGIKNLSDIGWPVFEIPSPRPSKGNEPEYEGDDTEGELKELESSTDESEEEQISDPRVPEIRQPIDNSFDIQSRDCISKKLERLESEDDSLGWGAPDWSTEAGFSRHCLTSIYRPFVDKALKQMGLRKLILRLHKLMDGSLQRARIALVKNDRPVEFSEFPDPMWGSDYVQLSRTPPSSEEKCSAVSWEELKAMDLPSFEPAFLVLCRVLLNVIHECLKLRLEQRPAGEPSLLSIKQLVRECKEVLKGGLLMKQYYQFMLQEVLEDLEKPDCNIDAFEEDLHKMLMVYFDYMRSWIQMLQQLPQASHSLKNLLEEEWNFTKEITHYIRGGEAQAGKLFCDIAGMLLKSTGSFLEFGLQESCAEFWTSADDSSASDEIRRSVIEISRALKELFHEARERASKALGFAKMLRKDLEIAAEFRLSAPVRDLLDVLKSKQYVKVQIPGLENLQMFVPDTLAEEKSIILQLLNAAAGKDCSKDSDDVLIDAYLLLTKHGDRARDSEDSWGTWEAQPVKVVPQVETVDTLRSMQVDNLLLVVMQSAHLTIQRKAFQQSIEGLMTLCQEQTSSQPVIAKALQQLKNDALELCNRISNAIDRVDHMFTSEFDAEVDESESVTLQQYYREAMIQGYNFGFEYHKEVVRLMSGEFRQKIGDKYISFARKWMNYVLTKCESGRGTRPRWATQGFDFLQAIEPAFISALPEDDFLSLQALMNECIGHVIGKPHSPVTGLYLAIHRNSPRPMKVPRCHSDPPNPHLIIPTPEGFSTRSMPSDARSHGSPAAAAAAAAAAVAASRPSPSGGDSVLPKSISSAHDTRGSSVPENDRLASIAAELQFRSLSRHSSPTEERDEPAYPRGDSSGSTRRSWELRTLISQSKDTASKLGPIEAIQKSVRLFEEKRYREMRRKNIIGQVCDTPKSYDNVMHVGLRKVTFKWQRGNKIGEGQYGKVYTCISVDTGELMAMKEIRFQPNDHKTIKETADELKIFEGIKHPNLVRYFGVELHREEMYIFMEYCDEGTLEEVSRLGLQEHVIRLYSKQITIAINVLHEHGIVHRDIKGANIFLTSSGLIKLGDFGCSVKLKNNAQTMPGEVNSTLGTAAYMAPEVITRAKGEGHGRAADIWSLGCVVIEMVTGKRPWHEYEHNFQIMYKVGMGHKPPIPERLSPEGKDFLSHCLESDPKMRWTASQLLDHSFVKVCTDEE
Sequence of PTK2 (Q05397 whole entry): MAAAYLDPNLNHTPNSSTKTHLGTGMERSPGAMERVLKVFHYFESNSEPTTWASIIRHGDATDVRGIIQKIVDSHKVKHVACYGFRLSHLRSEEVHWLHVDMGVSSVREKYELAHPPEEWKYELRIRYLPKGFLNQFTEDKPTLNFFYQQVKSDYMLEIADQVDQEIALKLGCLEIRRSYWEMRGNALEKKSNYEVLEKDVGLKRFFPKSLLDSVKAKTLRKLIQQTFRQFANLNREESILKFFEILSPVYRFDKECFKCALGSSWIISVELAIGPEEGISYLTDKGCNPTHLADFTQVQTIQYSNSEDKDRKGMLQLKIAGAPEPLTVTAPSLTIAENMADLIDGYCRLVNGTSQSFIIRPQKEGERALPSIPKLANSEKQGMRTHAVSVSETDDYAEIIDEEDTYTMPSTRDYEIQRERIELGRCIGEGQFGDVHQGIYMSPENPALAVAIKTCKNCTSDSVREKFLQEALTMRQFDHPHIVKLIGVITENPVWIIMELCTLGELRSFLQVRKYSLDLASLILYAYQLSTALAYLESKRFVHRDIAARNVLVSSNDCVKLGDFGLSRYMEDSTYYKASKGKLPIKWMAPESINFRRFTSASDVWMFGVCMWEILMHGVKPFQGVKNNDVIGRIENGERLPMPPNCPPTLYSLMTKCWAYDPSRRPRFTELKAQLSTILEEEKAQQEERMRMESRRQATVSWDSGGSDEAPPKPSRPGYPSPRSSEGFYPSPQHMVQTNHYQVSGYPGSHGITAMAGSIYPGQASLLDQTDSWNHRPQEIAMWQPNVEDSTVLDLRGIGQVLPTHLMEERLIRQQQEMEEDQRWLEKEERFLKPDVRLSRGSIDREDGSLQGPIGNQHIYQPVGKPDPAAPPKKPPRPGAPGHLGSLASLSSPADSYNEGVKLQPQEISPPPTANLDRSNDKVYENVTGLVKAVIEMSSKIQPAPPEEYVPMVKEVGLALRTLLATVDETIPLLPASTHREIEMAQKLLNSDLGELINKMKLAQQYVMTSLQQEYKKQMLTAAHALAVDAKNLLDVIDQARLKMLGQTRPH
Sequence of FYN (P06241 whole entry): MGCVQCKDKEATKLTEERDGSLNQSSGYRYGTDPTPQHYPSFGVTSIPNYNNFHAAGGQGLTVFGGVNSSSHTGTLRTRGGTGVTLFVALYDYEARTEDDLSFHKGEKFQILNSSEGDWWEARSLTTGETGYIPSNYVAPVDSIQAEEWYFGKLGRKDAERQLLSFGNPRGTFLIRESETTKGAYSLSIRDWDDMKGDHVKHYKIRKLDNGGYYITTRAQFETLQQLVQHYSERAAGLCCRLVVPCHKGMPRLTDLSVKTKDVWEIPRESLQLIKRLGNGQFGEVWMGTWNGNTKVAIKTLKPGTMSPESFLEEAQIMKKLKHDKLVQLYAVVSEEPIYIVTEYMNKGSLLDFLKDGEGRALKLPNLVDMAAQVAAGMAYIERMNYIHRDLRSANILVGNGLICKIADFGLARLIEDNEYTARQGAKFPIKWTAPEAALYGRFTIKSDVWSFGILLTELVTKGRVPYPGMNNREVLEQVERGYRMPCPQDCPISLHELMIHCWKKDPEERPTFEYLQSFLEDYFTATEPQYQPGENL
Sequence of CSK (P41240 whole entry): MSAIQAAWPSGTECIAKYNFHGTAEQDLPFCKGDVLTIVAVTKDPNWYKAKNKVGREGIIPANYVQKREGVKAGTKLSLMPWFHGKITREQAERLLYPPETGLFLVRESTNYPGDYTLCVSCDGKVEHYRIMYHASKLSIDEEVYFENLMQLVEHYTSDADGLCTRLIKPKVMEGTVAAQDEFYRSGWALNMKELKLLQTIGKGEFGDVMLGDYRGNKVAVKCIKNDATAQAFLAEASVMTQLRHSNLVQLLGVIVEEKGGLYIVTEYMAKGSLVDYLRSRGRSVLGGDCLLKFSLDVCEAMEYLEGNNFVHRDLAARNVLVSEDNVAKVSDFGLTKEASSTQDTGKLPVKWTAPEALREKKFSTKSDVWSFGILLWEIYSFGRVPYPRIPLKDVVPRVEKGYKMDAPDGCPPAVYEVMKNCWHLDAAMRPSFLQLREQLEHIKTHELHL

For orientation: IC50 means the concentration at which inhibition is half-maximal. Higher therefore signals lower potency. In the case of `CN1CCN(c2ccc(Nc3ncc(C#N)c(Nc4ccccc4C(N)=O)n3)cc2)CC1.Cl` [TCMDC-134116], the IC50 was 39 nM and 51 nM in assay [1]; 1200 nM and 910 nM in assay [2]; 4100 nM in [3]; 44 nM and 58 nM in assay [4]; 1100 nM and 1400 nM in assay [5]; 300 nM and 240 nM in assay [6]. Also, the values for the IC50 in assay [7], in assay [8] and in assay [9] were greater than 20000 nM, greater than 20000 nM and 740 nM, respectively.
As to `Cl.NCC1(c2nc(-c3ccc(Cl)c(O)c3)c(-c3ccncc3)[nH]2)CCCCC1` [TCMDC-141154], the half-maximal inhibitory concentration (IC50) in assay [1] was greater than 20000 nM; in assay [2], 1100 nM and 1400 nM; in [3], 4400 nM; in assay [4], greater than 20000 nM; in [5], greater than 20000 nM; in assay [6], 190 nM and 170 nM. For the same compound, the IC50 in assay [7], in assay [8] and in assay [9] was greater than 20000 nM in each case.
Regarding `CN(C)CC(O)COc1ccc(Nc2ncc([N+](=O)[O-])c(Nc3ccccc3O)n2)cc1.O=C(O)C(F)(F)F` (stereo not drawn) [TCMDC-141399], the IC50 is 840 nM in assay [1]; greater than 20000 nM in assay [2]; greater than 20000 nM in assay [3]; 90 nM and 97 nM in assay [4]; 1200 nM and 950 nM in assay [5]; greater than 20000 nM in assay [6]. The IC50 in [7], in assay [8] and in assay [9] was greater than 20000 nM each time.
